The source of these data is patent US20250179057A1, “MEK IMMUNE ONCOLOGY INHIBITORS AND THERAPEUTIC USES THEREOF” (Immuneering Corporation, priority 2022, published 2025).

Several values for one entry are separate records, joined by “and”; a condition that tells them apart may be missing. Equal entries are not always repeated.

For the experiment, the system named is phospho-ERK in A549 (KRAS G12S) cells. Description: Cell-based pERK (pERK:tERK) in A549 cells. Also on record: A549-pERK 10 uM, 2 h: unit not given here. As to conditions: 2 h; for A549-pERK (10 nM, 2 h): phospho- to total protein ratio normalized to DMSO control (Table 9); for A549-pERK 10 uM, 2 h: phospho- to total protein ratio normalized to DMSO control. How it is done:
Media components, reagents and buffers for Western Blot: All cell culture media components were obtained from ThermoFisher Scientific. […] Laemmli sample loading 4× buffer (ThermoFisher Scientific, Cat No. NP0007). MOPS/SDS electrophoresis running buffer (GenScript, Cat No. M00138).
Subculture conditions: Adherent cells were grown to approximately 90% confluency, culture medium was aspirated and the cell layer was rinsed with PBS. […] Eight mL media was added, cells were spun down at 1000×g for 5 minutes. Cell pellet was re-suspended in 10 mL media and an appropriate volume was inoculated into a new culture flask.
Compound (drug) treatment: Cells were plated in a 6-well plate at a density of 250,000-300,000 cells/well in 3 mL media and incubated 37° C. in a humidified, 5% CO2 incubator. […] These solutions were added to the cells (3 uL/well), mixed by swirling the plate, and incubated at 37° C. in a humidified, 5% CO2 incubator for 2 hours.
Cell lysis and protein estimation: Cells were washed with PBS, and scraped in 50 μL of lysis buffer containing protease and phosphatase inhibitors. Cell lysates were stored at −20° C. Cell lysates were thawed and spun at 12,000 rpm for one minute, 3 ul of the supernatant was added to 500 μL of Coomassie blue reagent following by 500 μL of water. […] Protein standards were used (0-20 mg/mL) to calculate protein concentrations of test samples.
All samples were heated at 95° C. for 5 minutes, cooled to room temperature and spun down. […] After the run, gel was removed and protein transfer was done using iBlot for 7 minutes, as per manufacturer's recommendations. After the transfer, nitrocellulose membrane was incubated on a shaker in 5 mL of blocking buffer at room temperature for 1 hr. The blot was then incubated overnight on a shaker in 5 ml of blocking buffer containing 0.2% Tween-20 and primary antibody, at room temperature. Anti-phospho-STAT3 antibody was used at a dilution of 1:500, the other 3 primary antibodies were used at a dilution of 1:1000.
Next day, the blot was washed 3 times for 10 min each with 10 mL of TBST followed by incubation on a shaker in 5 ml of blocking buffer containing 0.2% Tween-20 and 0.5 ul of the IRDye labeled secondary antibodies, diluted 1:10000, at room temperature for 1 hr. The blot was then washed 3 times for 10 min each with 10 mL of TBST and dried between sheets of paper towels. Imaging was done using LICOR's Odyssey imaging system, quantitation was done using their software, Image Studio version 3.1.
Materials and Methods: A549 or A375 cells were seeded in 6-well plates at an appropriate seeding density on day 0. On day 2 or 3, after checking the health and confluency of cells, the media was aspirated and replaced with 1 mL media containing a predetermined concentration of compound and incubated for 2 hours. After 2 hours, the media was aspirated, and the cells washed 2 times with cold PBS. Cells were lysed on ice, with 50 uL 1×CST lysis buffer +1 mM PMSF for 5 minutes. After 5 minutes, cells were removed using a scraper and transferred to cold 1.5 mL tubes, and centrifuged for 10 min, 4° C., 14,000×g. Supernatant was gently removed and snap frozen in liquid nitrogen. Protein concentration of the lysate was determined using Bradford Reagent (analyzed using SpectraMax M2E) and diluted to 1 mg/mL or pERK or 1.5 mg/mL for pMEK analysis. […] All dilutions were in Milk-free antibody diluent.
They were grown in T75 flasks in DMEM containing 10% FBS and Pen-Strep. at 37° C. in a humidified, 5% CO2 incubator. The adherent cells were grown to about 90% confluency, culture medium was aspirated, and the cell layer was rinsed with PBS. […] Eight mL media was added, cells were spun down at 1000 g for 5 minutes. Cell pellet was re-suspended in 10 mL media and an appropriate volume was inoculated into a new culture flask. Cells were plated in a 6-well plate at a density of 250,000-300,000 cells/well in 3 mL media and incubated 37° C. in a humidified, 5% CO2 incubator.

As to `CNS(=O)(=O)Nc1cccc(Cc2c(CC(=O)N(C)C)c3ccc(OC(=O)N(C)C)cc3oc2=O)c1F` [Compound 196], the “A549-pERK (10 nM, 2 h)” value was found to be 106.

As to `CNS(=O)(=O)Nc1cccc(Cc2c(CN3CCC4(CN(C)C4)C3)c3ccc(OC(=O)N(C)C)cc3oc2=O)c1F` [Compound 159], the “A549-pERK (10 nM, 2 h)” value is recorded as 82.7.

Regarding `CNS(=O)(=O)Nc1cccc(Cc2c(CN3CC(C(N)=O)C3)c3ccc(OC(=O)N(C)C)cc3oc2=O)c1F` [Compound 173], the “A549-pERK (10 nM, 2 h)” value is given as 97.7. Same read-out and setting: for `CNS(=O)(=O)Nc1cccc(Cc2c(CN(C)c3ccccc3Cl)c3ccc(OC(=O)N(C)C)cc3oc2=O)c1F` [Compound 99] the value was 98.9; for `CNS(=O)(=O)Nc1cccc(Cc2c(CNc3cn[nH]c3)c3ccc(OC(=O)N(C)C)cc3oc2=O)c1F` [Compound 92], 93.8. On to `CNS(=O)(=O)Nc1cccc(Cc2c(CNCC(=O)N(C)c3ccccc3)c3ccc(OC(=O)N(C)C)cc3oc2=O)c1F` [Compound 220], for which the “A549-pERK (10 nM, 2 h)” value was determined as 109 and the “A549-pERK 10 uM, 2 h” value is reported as 4.28. `CN(C)C(=O)Oc1ccc2c(CN3CCC3)c(Cc3ccnc(NS(=O)(=O)C4CC4)c3F)c(=O)oc2c1` [Compound 155]: the “A549-pERK (10 nM, 2 h)” value was 84.9. On to `CNS(=O)(=O)Nc1cccc(Cc2c(CNCC(=O)Nc3ccccc3)c3ccc(OC(=O)N(C)C)cc3oc2=O)c1F` [Compound 223], for which the “A549-pERK (10 nM, 2 h)” value was determined as 119 and the “A549-pERK 10 uM, 2 h” value is on record as 3.04. In the case of `CNS(=O)(=O)Nc1cccc(Cc2c(CN3CC4(COC4)C3)c3ccc(OC(=O)N(C)C)cc3oc2=O)c1F` [Compound 152], the “A549-pERK (10 nM, 2 h)” value worked out at 70.5. Still for that read-out and setting: then `CNS(=O)(=O)Nc1cccc(Cc2c(CC(=O)Nc3ccn[nH]3)c3ccc(OC(=O)N(C)C)cc3oc2=O)c1F` [Compound 202], with 119. As to `CNS(=O)(=O)Nc1cccc(Cc2c(CNCC(=O)O)c3cc(Cl)c(OC(=O)N(C)C)cc3oc2=O)c1F` [Compound 133], the “A549-pERK (10 nM, 2 h)” value amounted to 88.1 and the “A549-pERK 10 uM, 2 h” value is 23.41. With `CNS(=O)(=O)Nc1cccc(Cc2c(CC(=O)N3CCN(C)CC3)c3ccc(OC(=O)N(C)C)cc3oc2=O)c1F` [Compound 195], the “A549-pERK (10 nM, 2 h)” value worked out at 113. On the same count and under the same terms, then `CNS(=O)(=O)Nc1cccc(Cc2c(CN3CCN(C4CC4)CC3)c3ccc(OC(=O)N(C)C)cc3oc2=O)c1F` [Compound 64], with 73.

With `CCC(=O)NCc1c(Cc2cccc(NS(=O)(=O)NC)c2F)c(=O)oc2cc(OC(=O)N(C)C)ccc12` [Compound 207], the “A549-pERK (10 nM, 2 h)” value came out at 97.4 and the “A549-pERK 10 uM, 2 h” value came to 11.35.

On to `CNS(=O)(=O)Nc1cccc(Cc2c(CNc3nccs3)c3ccc(OC(=O)N(C)C)cc3oc2=O)c1F` [Compound 94], for which the “A549-pERK (10 nM, 2 h)” value came out at 93.5.

Turning to `CNS(=O)(=O)Nc1cccc(Cc2c(CNCCCCO)c3ccc(OC(=O)N(C)C)cc3oc2=O)c1F` [Compound 71], the “A549-pERK (10 nM, 2 h)” value is on record as 99.4. Still for that read-out and setting: for `CNS(=O)(=O)Nc1cccc(Cc2c(CN(C)C)c3ccc(Oc4ncccn4)cc3oc2=O)c1F` [Compound 129] the value was 92.2. Regarding `CNS(=O)(=O)Nc1cccc(Cc2c(CNCC(=O)N3CCNCC3)c3ccc(OC(=O)N(C)C)cc3oc2=O)c1F` [Compound 191], the “A549-pERK (10 nM, 2 h)” value is on record as 131 and the “A549-pERK 10 uM, 2 h” value amounted to 8.6.

Take `CNS(=O)(=O)Nc1cccc(Cc2c(CNC(=O)OCCO)c3ccc(OC(=O)N(C)C)cc3oc2=O)c1F` [Compound 106]: the “A549-pERK 10 uM, 2 h” value amounted to 27.88.

Take `CNS(=O)(=O)Nc1cccc(Cc2c(CN3CC(C)C3)c3ccc(OC(=O)N(C)C)cc3oc2=O)c1F` [Compound 142]: the “A549-pERK (10 nM, 2 h)” value was 94.6. On the same count and under the same terms, for `CNS(=O)(=O)Nc1cccc(Cc2c(CNCc3ccco3)c3ccc(OC(=O)N(C)C)cc3oc2=O)c1F` [Compound 56] the value was 92.9. Regarding `CNS(=O)(=O)Nc1cccc(Cc2c(CN3CCOCC3=O)c3ccc(OC(=O)N(C)C)cc3oc2=O)c1F` [Compound 181], the “A549-pERK (10 nM, 2 h)” value amounted to 100 and the “A549-pERK 10 uM, 2 h” value is 22.23. As to `CNS(=O)(=O)Nc1cccc(Cc2c(CN3CCN(C)CC3)c3ccc(OC(=O)N(C)C)cc3oc2=O)c1F` [Compound 15], the “A549-pERK (10 nM, 2 h)” value was determined as 73.8.

In the case of `CNS(=O)(=O)Nc1cccc(Cc2c(CNC(=O)c3nn[nH]n3)c3ccc(OC(=O)N(C)C)cc3oc2=O)c1F` [Compound 213], the “A549-pERK (10 nM, 2 h)” value is recorded as 100 and the “A549-pERK 10 uM, 2 h” value was 70.14.

Turning to `CNS(=O)(=O)Nc1cccc(Cc2c(CNC(C)c3ccccc3)c3ccc(OC(=O)N(C)C)cc3oc2=O)c1F` (centres unmarked) [Compound 63], the “A549-pERK (10 nM, 2 h)” value came to 88. Take `CNS(=O)(=O)Nc1cccc(Cc2c(CNC(=O)C(C)(C)O)c3ccc(OC(=O)N(C)C)cc3oc2=O)c1F` [Compound 212]: the “A549-pERK (10 nM, 2 h)” value stood at 100 and the “A549-pERK 10 uM, 2 h” value stood at 13.03.

Consider `CNS(=O)(=O)Nc1cccc(Cc2c(CN3CC(N)C3)c3ccc(OC(=O)N(C)C)cc3oc2=O)c1F` [Compound 165], for which the “A549-pERK (10 nM, 2 h)” value came out at 104. Same read-out and setting: for `CNS(=O)(=O)Nc1cccc(Cc2c(CN(C)c3cccc(Cl)c3)c3ccc(OC(=O)N(C)C)cc3oc2=O)c1F` [Compound 95] the value was 80.2. The same measure, in the same setting: then `CNS(=O)(=O)Nc1cccc(Cc2c(CN3CC4CC3CN4)c3ccc(OC(=O)N(C)C)cc3oc2=O)c1F` (centres unmarked) [Compound 138], with 96.9; and `CNS(=O)(=O)Nc1cccc(Cc2c(CNc3ccnn3C)c3ccc(OC(=O)N(C)C)cc3oc2=O)c1F` [Compound 96], with 102. The same measure, in the same setting: then `CNS(=O)(=O)Nc1cccc(Cc2c(CO)c3ccc(OC(=O)N(C)C)cc3oc2=O)c1F` [Compound 180], with 75; and `CNS(=O)(=O)Nc1nccc(Cc2c(CN3CC(F)(F)C3)c3ccc(OC(=O)N(C)C)cc3oc2=O)c1F` [Compound 149], with 69.1.

For the compound `CNS(=O)(=O)Nc1cccc(Cc2c(CNCC(=O)N(C)C)c3ccc(OC(=O)N(C)C)cc3oc2=O)c1F` [Compound 57], the “A549-pERK (10 nM, 2 h)” value is 106 and 119; the “A549-pERK 10 uM, 2 h” value came to 7.33. On to `CNS(=O)(=O)Nc1cccc(Cc2c(CNCc3cccc(C(F)(F)F)c3)c3ccc(OC(=O)N(C)C)cc3oc2=O)c1F` [Compound 59], for which the “A549-pERK (10 nM, 2 h)” value turned out to be 105. For `CCN(CC)C(=O)Oc1ccc2c(CN(C)C)c(Cc3cccc(NS(=O)(=O)NC)c3F)c(=O)oc2c1` [Compound 126], the “A549-pERK (10 nM, 2 h)” value is on record as 91.4. On the same count and under the same terms, then `CNS(=O)(=O)Nc1cccc(Cc2c(CN3CCN(C(=O)c4ccccc4)CC3)c3ccc(OC(=O)N(C)C)cc3oc2=O)c1F` [Compound 65], with 100. In the case of `CNS(=O)(=O)Nc1cccc(Cc2c(CCNCC3CC3)c3ccc(OC(=O)N(C)C)cc3oc2=O)c1F` [Compound 186], the “A549-pERK (10 nM, 2 h)” value turned out to be 80.1 and the “A549-pERK 10 uM, 2 h” value amounted to 0.74. The like results for `CNS(=O)(=O)Nc1cccc(Cc2c(CNC(=O)C(C)C)c3ccc(OC(=O)N(C)C)cc3oc2=O)c1F` [Compound 208] were, in that order, 105 and 23.64.

On to `CNS(=O)(=O)Nc1cccc(Cc2c(CNc3ccn(C)n3)c3ccc(OC(=O)N(C)C)cc3oc2=O)c1F` [Compound 89], for which the “A549-pERK (10 nM, 2 h)” value worked out at 83.7.
